Data from patent publication US20230136215A1, “PRODUCTION OF DUNALIELLA” (University of Greenwich, priority 2017, published 2023).

What was measured:
[1] = tested on: D. salina cultures; assay: D. salina cultures treated with herbicides; carotenoid contents determined by HPLC; format: cell-based, Dunaliella salina; conditions: for yield of phytoene, red light versus white light: herbicide-treated cultures, Table 4; for 9-cis/all-trans β-carotene ratio: norflurazon-treated; for content of phytoene per cell: continuous white LED light ~200 μmol m^−2 s^−1, 25° C.
[2] = Effect of red and blue LED light on all-trans β-carotene dissolved in chloroform; format: physicochemical; conditions: 2.4 μM in chloroform, 24 h, 25° C.
Experimental: FIGS. 10A-10C: Effect of red and blue LED light on all-trans β-carotene. (FIG. 10A) Red light under nitrogen; (FIG. 10B) Red light in air; (FIG. 10C) Blue light in air. All-trans-β-carotene (Sigma) was dissolved in chloroform to a final concentration of 2.4 μM and vials were thoroughly flushed with either nitrogen or air, sealed and incubated for 24 h at 25° C. under LED lights. (FIG. 10A) red, nitrogen; (FIG. 10B), red, air; (FIG. 10C) blue, nitrogen or air. The same results as (FIG. 10A) were obtained for dark under nitrogen or air. […] In (FIG. 10A) (red light under nitrogen) no reaction of β-carotene was detected.

[3] = Table 5, red light, 200 μmol m^−2 s^−1, 48 h
[4] = red light 200 pmol m^−2 s^−1 continuous, 48 h, chlorpropham 10 μM, Norflurazon 5 µM
[5] = red light 200 μmol m^−2 s^−1 continuous, 48 h, chlorpropham 10 μM, Norflurazon 5 µM
[6] = white LED light 200 pmol m^−2 s^−1 continuous, 48 h, chlorpropham 10 μM, Norflurazon 5 µM
[7] = white LED light 200 μmol m^−2 s^−1 continuous, 48 h, chlorpropham 10 μM, Norflurazon 5 µM
[8] = 20 μM chlorpropham, 6-days cultivation in white LED light
[9] = 20 μM chlorpropham, white light 1500 μmol m^−2 s^−1, 4 days' cultivation
[10] = Table 5 (red light), 1500 μmol m^−2 s^−1, 96 h
[11] = Table 5, red light, 200 μmol m^−2 s^−1, 144 h

## O=C(Nc1ccc(F)cc1F)c1cccnc1Oc1cccc(C(F)(F)F)c1 [Diflufenican, N-(2,4-difluorophenyl)-2-[3-(trifluoromethyl)phenoxy]pyridine-3-carboxamide]
[1]; [3]
  9-cis β-carotene: 10.84 ± 0.19 pg cell^−1
  9cis of total: 38%
  All-trans α-carotene: 0.34 ± 0.00 pg cell^−1
  All-trans β-carotene: 2.98 ± 0.11 pg cell^−1
  Phytoene: 12.78 ± 0.40 pg cell^−1
  Phytofluene: 0.01 ± 0.00 pg cell^−1
  Total carotenoids (sum): 28.64 pg cell^−1
  lutein: 0.56 ± 0.01 pg cell^−1
  phytoene + phytofluene of total: 45%
  zeaxanthin: 1.13 ± 0.06 pg cell^−1

## CNc1cnn(-c2cccc(C(F)(F)F)c2)c(=O)c1Cl [Norflurazon, 4-chloro-5-methylamino-2-(3-trifluoromethylphenyl)-pyridazin-3(2H)one]
[1]; 48 h
  yield of phytoene, red light versus white light: more than doubled
[1]; norflurazon 5 and 50 μM, 200 μmol m^−2 s^−1, 25° C., 48 h
  amount of phytoene produced under red light compared to white light: significantly higher
[1]; red LED light 200 μmol m^−2 s^−1, 25° C., 48 h
  9-cis/all-trans β-carotene ratio: 3.9
[1]; white LED light 200 μmol m^−2 s^−1, 25° C., 48 h
  9-cis/all-trans β-carotene ratio: 1.8
[1]; [4]
  9-cis β-carotene: 11.89 ± 0.83 pg cell^−1
  zeaxanthin: 1.12 ± 0.06 pg cell^−1
[1]; [5]
  9cis of total: 38%
  Phytoene: 14.42 ± 0.95 pg cell^−1
  Phytofluene: 0.02 ± 0.00 pg cell^−1
  Total carotenoids (sum): 31.55 pg cell^−1
  lutein: 0.62 ± 0.02 pg cell^−1
  phytoene + phytofluene of total: 46%
[1]; [6]
  9-cis β-carotene: 7.65 ± 0.67 pg cell^−1
  zeaxanthin: 0.80 ± 0.07 pg cell^−1
[1]; [7]
  9cis of total: 37%
  Phytoene: 7.07 ± 0.36 pg cell^−1
  Phytofluene: 0.01 ± 0.00 pg cell^−1
  Total carotenoids (sum): 20.6 pg cell^−1
  lutein: 0.52 ± 0.02 pg cell^−1
  phytoene + phytofluene of total: 34%

## CC1=C(/C=C/C(C)=C/C=C/C(C)=C/C=C/C=C(C)/C=C/C=C(C)/C=C/C2=C(C)CCCC2(C)C)C(C)(C)CCC1 [all-trans β-carotene, all-trans-β-carotene]
[2]; blue light, nitrogen or air
  destruction of all-trans β-carotene: fully destroyed
[2]; red light under air
  destruction of all-trans β-carotene: 40%
[2]; red light under nitrogen
  reaction of β-carotene: no reaction

## Nc1cc(Cl)nc(C(=O)O)c1Cl [aminopyralid, 4-amino-3,6-dichloropyridine-2-carboxylic acid]
[1]
  content of phytoene per cell: increased

## CCNC(=O)[C@@H](C)OC(=O)Nc1ccccc1 [carbetamide, (R)-1-(ethylcarbamoyl)ethyl carbanilate]
[1]
  content of phytoene per cell: increased

## CC(C)OC(=O)Nc1cccc(Cl)c1 [chlorpropham, isopropyl N-(3-chlorophenyl) carbamate]
[1]; [8]
  final phytoene concentration in the cultures: 3.55 ± 0.11 mg/L
  phytoene content in cells: 25.76±1.58 pg cell^−1
[1]; 20 μM chlorpropham, 6-days cultivation in white LED light, compared to untreated cells
  increase of phytoene content in cells: ca. 50 fold
[1]; 20 μM chlorpropham, 6-days cultivation in white LED light, compared to untreated cultures
  increase of final phytoene concentration in the cultures: 10 fold
[1]; [9]
  phytoene content: above 30 pg cell^−1
  phytoene yield: 8.2 mg/L
[1]; [10]
  9-cis β-carotene: 6.96 ± 0.74 pg cell^−1
  9cis of total: 12%
  All-trans α-carotene: 0.44 ± 0.07 pg cell^−1
  All-trans β-carotene: 17.34 ± 0.97 pg cell^−1
  Phytoene: 30.62 ± 1.31 pg cell^−1
  Phytofluene: 1.87 ± 0.12 pg cell^−1
  Total carotenoids (sum): 58.61 pg cell^−1
  lutein: 0.61 ± 0.03 pg cell^−1
  phytoene + phytofluene of total: 55%
  zeaxanthin: 0.77 ± 0.02 pg cell^−1
[1]; [11]
  9-cis β-carotene: 31.3 ± 2.49 pg cell^−1
  9cis of total: 29%
  All-trans α-carotene: 1.4 ± 0.13 pg cell^−1
  All-trans β-carotene: 18.34 ± 1.45 pg cell^−1
  Phytoene: 51.88 ± 4.53 pg cell^−1
  Phytofluene: 3.02 ± 0.29 pg cell^−1
  Total carotenoids (sum): 108.48 pg cell^−1
  lutein: 1.21 ± 0.09 pg cell^−1
  phytoene + phytofluene of total: 51%
  zeaxanthin: 1.33 ± 0.10 pg cell^−1
[1]; compared to untreated cultures
  increase of cellular content of colorless carotenoids: more than 30 fold
  increase of yield of the colorless carotenoids: more than 10 fold
[1]; 48 h
  yield of phytoene, red light versus white light: more than doubled
[1]; once chlorpropham was added
  Cell density: stopped increasing
[1]; [4]
  9-cis β-carotene: 14.35 ± 1.24 pg cell^−1
  zeaxanthin: 1.05 ± 0.06 pg cell^−1
[1]; [5]
  9cis of total: 39%
  Phytoene: 10.56 ± 1.53 pg cell^−1
  Phytofluene: 1.58 ± 0.17 pg cell^−1
  Total carotenoids (sum): 36.7 pg cell^−1
  lutein: 0.74 ± 0.05 pg cell^−1
  phytoene + phytofluene of total: 33%
[1]; same concentration of chlorpropham treatment
  phytoene contents under red light versus white light: higher
[1]; tested 0, 0.1, 1, 10, 20, 50 and 100 μM, 25° C.
  optimal concentration range of chlorpropham added to the cultures (phytoene production): 10 to 50 µM
[1]; [6]
  9-cis β-carotene: 13.35 ± 1.88 pg cell^−1
  zeaxanthin: 0.84 ± 0.09 pg cell^−1
[1]; [7]
  9cis of total: 43%
  Phytoene: 4.41 ± 0.65 pg cell^−1
  Phytofluene: 0.67 ± 0.09 pg cell^−1
  Total carotenoids (sum): 30.99 pg cell^−1
  lutein: 0.83 ± 0.13 pg cell^−1
  phytoene + phytofluene of total: 16%

## COc1nc(C)nc(NC(=O)NS(=O)(=O)c2ccccc2Cl)n1 [chlorsulfuron, 1-(2-chlorophenyl)sulfonyl-3-(4-methoxy-6-methyl-1,3,5-triazin-2-yl)urea]
[1]
  content of phytoene per cell: increased

## O=C(O)CNCP(=O)(O)O [glyphosate, 2-(phosphonomethylamino)acetic acid]
[1]
  content of phytoene per cell: increased
